# Experimental data reported in patent publication US11840686B2, “Modulation of prekallikrein (PKK) expression” (Ionis Pharmaceuticals, Inc., priority 2013, dated 2023).
# Strand notation (5' to 3'): a small letter for the sugar, then the base; units joined by * are phosphorothioate-linked, units joined directly phosphodiester-linked; [ ] holds rarer units or linkages, { } end groups; capitals alone tell only the bases. e = 2'-O-(2-methoxyethyl) (MOE); [5mC] = 5-methylcytosine; d = 2'-deoxy (DNA)
# Test system: human PKK mRNA
# Test: Antisense inhibition of human PKK mRNA in HepaRG cells, 5,000 nM (Example 2)
# Assay type: cell-based
# Outline: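 Percent inhibition of PKK mRNA is reported relative to untreated cells, after adjustment for total RNA by RIBOGREEN. Gapmers of 16–20 nucleosides with 2′-MOE wings were delivered at 5,000 nM by electroporation into HepaRG cells and left for roughly 24 hours before RNA isolation.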
# [1] = Table 8, HepaRG cells, electroporation with 5,000 nM antisense oligonucleotide, approx. 24 hours, PKK mRNA by RT-PCR (RTS3454), relative to untreated control cells
# [2] = HepaRG cells, 5,000 nM antisense oligonucleotide, 5-10-5 gapmers, Table 16
# [3] = HepaRG cells, electroporation with 5,000 nM antisense oligonucleotide, approximately 24 hours, PKK mRNA by RT-PCR (RTS3454), relative to untreated control cells, Table 6 experiment
# [4] = HepaRG cells, electroporation, 5,000 nM antisense oligonucleotide, approx. 24 hours, primer probe set RTS3454, relative to untreated control cells, Table 11
# [5] = Table 7, HepaRG cells, electroporation with 5,000 nM antisense oligonucleotide, approx. 24 hours, PKK mRNA by RT-PCR (RTS3454), relative to untreated control cells
# [6] = HepaRG cells, electroporation with 5,000 nM antisense oligonucleotide, approximately 24 hours, PKK mRNA by RT-PCR (RTS3454), relative to untreated control cells, Table 5 experiment
# [7] = human PKK mRNA in HepaRG cells, 5-10-5 gapmers, Table 14
# [8] = Table 13, human PKK mRNA in HepaRG cells, 5-10-5 gapmers
# [9] = HepaRG cells, electroporation, 5,000 nM antisense oligonucleotide, approx. 24 hours, primer probe set RTS3454, relative to untreated control cells, Table 12
# [10] = HepaRG cells, 5,000 nM antisense oligonucleotide, 5-10-5 gapmers, Table 17
substance,measurement,setting,value
547442 (antisense eT*eG*eG*eT*eG*dT*d[5mC]*d[5mC]*dT*dA*dT*dG*dA*dG*dT*eG*eA*e[5mC]*e[5mC]*e[5mC]) [compound 547442],% inhibition,[1],42%
547689 (antisense eG*eT*eA*eA*e[5mC]*dA*dA*dT*dA*dT*d[5mC]*dA*d[5mC]*dT*dG*eT*e[5mC]*e[5mC]*eT*eA) [compound 547689],% inhibition,[2],73%
547677 (antisense e[5mC]*eA*eT*e[5mC]*eA*d[5mC]*dT*dG*dT*d[5mC]*d[5mC]*dT*dA*dT*dA*eA*e[5mC]*eT*eA*eT) [compound 547677],% inhibition,[2],62%
547720 (eG*eA*eA*eA*eG*dA*d[5mC]*dG*dG*d[5mC]*d[5mC]*dA*dA*dT*dG*eG*eG*eA*eA*eA; antisense) [compound 547720],% inhibition,[2],8%
547321 (antisense eT*e[5mC]*eA*eA*eG*dG*dA*dA*dT*dG*dT*d[5mC]*d[5mC]*dA*dG*eA*eA*eA*e[5mC]*eT) [compound 547321],% inhibition,[3],53%
547646 (e[5mC]*eT*eA*eT*eA*dT*d[5mC]*dA*d[5mC]*dT*dG*dT*dA*d[5mC]*d[5mC]*eT*eA*eT*eA*eA; antisense) [compound 547646],% inhibition,"human PKK mRNA, HepaRG cells, 5-10-5 motif oligonucleotides targeting SEQ ID NO: 1 and 10",23%
546366 (antisense eT*eG*e[5mC]*e[5mC]*eT*dA*dG*dA*d[5mC]*dT*d[5mC]*dT*dG*dG*dA*e[5mC]*eT*eG*e[5mC]*eT) [compound 546366],% inhibition,[4],79%
546364 (antisense eG*eG*eA*e[5mC]*eT*dG*d[5mC]*dT*dT*d[5mC]*dT*d[5mC]*dA*dT*dG*e[5mC]*eT*eG*eG*eT) [compound 546364],% inhibition,[4],61%
547379 (e[5mC]*eT*e[5mC]*eG*eA*dT*dT*dT*dT*d[5mC]*d[5mC]*dA*dT*dA*d[5mC]*eA*eT*eT*eT*eG; antisense) [compound 547379],% inhibition,[5],37%
546243 (eA*eG*eA*eA*eT*dG*dG*d[5mC]*dA*dG*dG*dG*dT*dT*d[5mC]*eA*eG*eG*eT*eA; antisense) [compound 546243],% inhibition,[5],16%
547274 (antisense eG*eA*eG*eG*eT*dG*dA*dG*dT*d[5mC]*dT*d[5mC]*dT*dT*dG*eT*e[5mC]*eA*e[5mC]*eT) [compound 547274],% inhibition,[6],70%
547430 (e[5mC]*eA*eA*eT*e[5mC]*dT*d[5mC]*dA*dA*dA*dG*dA*dG*dT*dA*eA*e[5mC]*e[5mC]*eA*eG; antisense) [compound 547430],% inhibition,[1],70%
547605 (antisense eA*e[5mC]*eA*eA*eT*dA*dT*d[5mC]*dA*d[5mC]*dT*dG*dT*dA*d[5mC]*e[5mC]*eT*eA*eT*eA) [compound 547605],% inhibition,[7],43%
547580 (eA*eT*e[5mC]*eA*e[5mC]*dT*dG*dT*d[5mC]*d[5mC]*dT*dA*dT*dA*dA*e[5mC]*eT*e[5mC]*eT*eA; antisense) [compound 547580],% inhibition,[8],61%
546501 (eT*eT*eT*e[5mC]*e[5mC]*dA*dT*dG*d[5mC]*dA*dT*dA*d[5mC]*dT*d[5mC]*eG*e[5mC]*e[5mC]*eT*eT; antisense) [compound 546501],% inhibition,[9],53%
547610 (antisense eT*eG*eT*eA*eA*d[5mC]*dA*dG*dT*dA*dT*d[5mC]*dA*d[5mC]*dT*eG*eT*eA*e[5mC]*eT) [compound 547610],% inhibition,[7],45%
546311 (antisense e[5mC]*eA*eT*eG*eA*dT*dT*d[5mC]*d[5mC]*d[5mC]*dT*dT*d[5mC]*dT*dG*eA*eG*eA*e[5mC]*eT) [compound 546311],% inhibition,"Table 9 experiment, HepaRG cells, 20,000 cells per well, electroporation with 5,000 nM antisense oligonucleotide, approx. 24 hours, PKK mRNA by RT-PCR (RTS3454), relative to untreated control cells",79%
same,% inhibition,"Table 10 experiment, HepaRG cells, 20,000 cells per well, electroporation with 5,000 nM antisense oligonucleotide, approx. 24 hours, PKK mRNA by RT-PCR (RTS3454), relative to untreated control cells",76%
546865 (eT*eA*eT*eA*eA*d[5mC]*dT*dA*dT*dA*dA*d[5mC]*dA*dA*dT*eA*eT*e[5mC]*eA*e[5mC]; antisense) [compound 546865],% inhibition,[7],0%
547738 (eT*eT*eG*eG*eT*dG*dG*dT*dG*dG*dG*dA*dT*dT*dG*eG*eT*eG*e[5mC]*eT; antisense) [compound 547738],% inhibition,[10],41%
547433 (eG*eT*e[5mC]*e[5mC]*e[5mC]*d[5mC]*dA*dG*dT*dG*dT*dT*dA*d[5mC]*dA*e[5mC]*eA*eA*eT*e[5mC]; antisense) [compound 547433],% inhibition,[1],63%
546999 (eG*e[5mC]*eA*eG*e[5mC]*dT*d[5mC]*dA*d[5mC]*dA*d[5mC]*d[5mC]*d[5mC]*dA*dA*eA*eA*eA*eG*e[5mC]; antisense) [compound 546999],% inhibition,[10],29%
546859 (eT*eT*eT*e[5mC]*e[5mC]*dT*dA*dT*dA*dA*d[5mC]*dT*dA*dT*dA*eA*e[5mC]*eA*eG*eT; antisense) [compound 546859],% inhibition,[7],7%
547309 (antisense e[5mC]*eT*eT*eT*e[5mC]*dA*dA*dG*dA*dA*dG*d[5mC]*dA*dA*d[5mC]*e[5mC]*eA*eA*eA*e[5mC]) [compound 547309],% inhibition,[6],71%
546964 (eG*e[5mC]*eG*eA*eT*dT*d[5mC]*d[5mC]*dT*dT*dG*d[5mC]*d[5mC]*dT*d[5mC]*eT*eG*e[5mC]*eT*eG; antisense) [compound 546964],% inhibition,[2],53%
547750 (eT*eG*eG*eT*eT*dG*dG*dT*dG*dG*d[5mC]*dG*dG*dG*dA*eT*e[5mC]*eG*eG*eT; antisense) [compound 547750],% inhibition,[10],41%
547538 (antisense e[5mC]*e[5mC]*eA*eG*e[5mC]*dA*dG*dA*dA*dA*dT*d[5mC]*d[5mC]*dT*dG*eT*eG*e[5mC]*eA*eT) [compound 547538],% inhibition,[9],77%
547703 (antisense e[5mC]*eA*eA*e[5mC]*eA*dT*d[5mC]*dA*d[5mC]*dT*dG*dT*dA*d[5mC]*d[5mC]*eT*eA*eT*eA*eA) [compound 547703],% inhibition,[2],25%
547748 (eG*eG*eT*eT*eG*dG*dT*dG*dG*d[5mC]*dG*dG*dG*dA*dT*e[5mC]*eG*eG*eT*eG; antisense) [compound 547748],% inhibition,[10],78%
546770 (eG*eT*eG*eG*eA*d[5mC]*dG*dA*d[5mC]*dT*dG*d[5mC]*d[5mC]*d[5mC]*dT*eG*eT*eG*e[5mC]*e[5mC]; antisense) [compound 546770],% inhibition,[8],74%
546193 (antisense e[5mC]*eA*eT*eT*eA*dA*dA*dA*dT*dT*dG*dA*d[5mC]*dT*d[5mC]*e[5mC]*eT*e[5mC]*eT*e[5mC]) [compound 546193],% inhibition,[3],57%
547719 (eT*eA*e[5mC]*e[5mC]*eA*dA*dG*d[5mC]*dT*dT*dG*dT*dA*dG*dA*eA*eG*eG*eG*eA; antisense) [compound 547719],% inhibition,[2],69%
547741 (eT*eA*eG*eG*eT*dG*dG*dT*dG*dG*dG*dA*dT*dT*dG*eG*eT*eG*eG*eT; antisense) [compound 547741],% inhibition,[10],47%
547351 (antisense eT*eT*eT*eG*eG*d[5mC]*dA*dT*dT*d[5mC]*dT*dT*d[5mC]*dA*dA*e[5mC]*eA*e[5mC]*eT*eG) [compound 547351],% inhibition,[3],92%
